Measured values: US6028197A, “Dibenzo[a,g]quinolizinium derivatives and the salts thereof” (Hanwha Corporation, priority 1998, dated 2000)

The molecules below were run against T1, sterol 14-reductase (Rattus norvegicus, UniProt A0ACM8Q6X4) (assay: Inhibition of sterol 14-reductase in rat liver microsomes). Settings: Enzyme Activity (relative in vitro activity for sterol 14-reductase, IC50 class).
T1 construct: microsome which was used as an enzyme source of sterol 14-reductase; from tissue; host or cells: liver microsomes of male Sprague-Dawley rats fed lovastatin and cholestyramine
T1 sequence (A0ACM8Q6X4 1-418): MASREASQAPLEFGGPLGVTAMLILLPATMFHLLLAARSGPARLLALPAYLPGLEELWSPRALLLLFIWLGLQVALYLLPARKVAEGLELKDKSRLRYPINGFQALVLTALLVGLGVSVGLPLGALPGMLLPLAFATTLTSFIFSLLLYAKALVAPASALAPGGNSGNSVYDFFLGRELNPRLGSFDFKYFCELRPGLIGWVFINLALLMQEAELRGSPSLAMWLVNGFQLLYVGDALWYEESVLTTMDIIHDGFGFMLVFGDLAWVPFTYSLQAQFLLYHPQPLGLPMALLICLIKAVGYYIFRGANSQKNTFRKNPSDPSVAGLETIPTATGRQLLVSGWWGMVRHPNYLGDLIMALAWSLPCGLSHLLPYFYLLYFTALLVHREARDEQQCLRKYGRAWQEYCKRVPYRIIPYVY
Assay type: biochemical
Method: 20 Male Sprague-Dawley rats weighing from 150 to 250 g have been fed for 7 days with a diet containing 0.1% (w/w) Lovastatin and 5% (w/w) Cholestyramine. The animals were fasted for 12 hours before excising liver tissues and then sacrificed by decapitation at midnight. An aqueous solution containing 0.25M of sucrose was injected into the hepatic portal vein to remove all the blood within the liver, and then, the liver was excised. The liver was homogenated with two volumes of buffer solution A (0.1M potassium phosphate, 1 mM reduced glutathione, 0.5 mM EDTA, 20% (v/v) glycerol, pH 7.4) by repeating pestles over 10 times and then, centrifuged with 900×g for 5 minutes to give a supernatant. The supernatant was centrifuged with 12,000×g for 20 minutes. The supernatant obtained was ultracentrifuged with 105,000×g for 90 minutes to give a microsome which was used as an enzyme source of sterol 14-reductase. Assay for sterol 14-reductase was carried out as follows:
60 mmol of 4,4-dimethyl-5α-cholesta-7,14-dien-3β-ol and 5,6-dihydrodibenzo-[a,g]quinolizinium salts (compound no. 2) dissolved in DMSO were added to an assay mixture (total volume 1.0 ml) containing 2 mg of the microsomal protein, 2 mM of NADPH and 25 mg of glucose plus 20 units of glucose oxidase with preincubations under nitrogen at 37° C. for 4 min. unless otherwise specified to establish anaerobic condition. Buffer A (0.1M potassium phosphate buffer, pH 7.4, including 1 mM reduced glutathione, 0.5 mM EDTA, and 20% (v/v) glycerol) used for incubation had been equilibrated with nitrogen, and nitrogen was exchanged for air in all sealed reaction flasks prior to the start of incubations. Incubation of the complete mixture was carried out anaerobically in sealed flasks for 10 min at 37° C. unless otherwise indicated. Incubations were terminated by the addition of 1 ml of ethanolic KOH followed by heating under reflux for 10 min. Sterols were extracted four times with 4 ml of petroleum ether, and the solvent was evaporated to dryness under a nitrogen stream. The resulting residue was dissolved in 200-500 μl of n-hexane for quantification by GLC at high sensitive attenuation. The activity of sterol 14-reductase was determined with the amount of the substrate wherein the double bonds of 14-carbon were reduced (for the amount reduced by 1 mg of the microsome protein for 1 minute).

Compound | IC50 [µM]
C=C(COc1c(OC)ccc2c(CC)c3[n+](cc12)CCc1cc(OC)c(OC)cc1-3)C[Si](C)(C)C [Compound No. 44, 5,6-dihydro-2,3-dimethoxybenzo[a]-13-ethyl-10-methoxy-9-[(3-trimethylsilyl)propen-2-yl]oxybenzo[g]quinolizinium chloride] | > 100

Same assay, conditions: microsomes; read-out: Enzyme Activity (relative in vitro activity for sterol 14-reductase, IC50 class)

Compound | IC50 [µM]
CCc1c2[n+](cc3c(OCc4ccc(C)c([N+](=O)[O-])c4)c(OC)ccc13)CCc1cc3c(cc1-2)OCO3 [Compound No. 49, 5,6-dihydro-2,3-methylenedioxybenzo[a]-13-ethyl-10-methoxy-9-(4-methyl-3-nitro)benzyloxybenzo[g]quinolizinium iodide] | 10 to 100

Same assay, conditions: read-out: Enzyme Activity (relative in vitro activity for sterol 14-reductase, IC50 class)

Compound | IC50 [µM]
CCc1c2[n+](cc3c(OCc4cccc(Br)c4)c(OC)ccc13)CCc1cc(OC)c(OC)cc1-2 [Compound No. 34, 5,6-dihydro-2,3-dimethoxybenzo[a]-9-(3-bromo)-benzyloxy-13-ethyl-10-methoxybenzo[g]quinolizinium chloride] | 10 to 100
CCc1c2[n+](cc3c(OCc4cc(OC)cc(OC)c4)c(OC)ccc13)CCc1cc(OC)c(OC)cc1-2 [Compound No. 35, 5,6-dihydro-2,3-dimethoxybenzo[a]-9-(3,5-dimethoxy)benzyloxy-13-ethyl-10-methoxybenzo[g]quinolizinium chloride] | > 100
CCc1c2[n+](cc3c(OCc4ccc5ccccc5n4)c(OC)ccc13)CCc1cc(OC)c(OC)cc1-2 [Compound No. 36, 5,6-dihydro-2,3-dimethoxybenzo[a]-13-ethyl-10-methoxy-9-(quinolin-2-yl)methoxybenzo[g]quinolizinium chloride] | 10 to 100
CCc1c2[n+](cc3c(OCc4cc(OC)c(OC)c(OC)c4)c(OC)ccc13)CCc1cc(OC)c(OC)cc1-2 [Compound No. 37, 5,6-dihydro-2,3-dimethoxybenzo[a]-13-ethyl-10-methoxy-9-(3,4,5-trimethoxy)benzyloxybenzo[g]quinolizinium chloride] | > 100
CCc1c2[n+](cc3c(OCc4ccc(CS(=O)(=O)c5ccccc5)cc4)c(OC)ccc13)CCc1cc(OC)c(OC)cc1-2 [Compound No. 38, 5,6-dihydro-2,3-dimethoxybenzo[a]-13-ethyl-10-methoxy-9-[4-(phenylsulfonylmethyl)benzyloxy]benzo[g]-quinolizinium chloride] | 10 to 100
CCc1c2[n+](cc3c(OCc4ccc([N+](=O)[O-])o4)c(OC)ccc13)CCc1cc(OC)c(OC)cc1-2 [Compound No. 39, 5,6-dihydro-2,3-dimethoxybenzo[a]-13-ethyl-10-methoxy-9-(5-nitrofuran-2-yl)methoxybenzo[g]quinolizinium chloride] | 10 to 100
CCc1c2[n+](cc3c(OCc4cc5c(cc4Cl)OCO5)c(OC)ccc13)CCc1cc(OC)c(OC)cc1-2 [Compound No. 40, 5,6-dihydro-2,3-dimethoxybenzo[a]-9-(6-chloro)-piperonyloxy-13-ethyl-10-methoxybenzo[g]quinolizinium chloride] | > 100
C=C(C)COc1c(OC)ccc2c(CC)c3[n+](cc12)CCc1cc(OC)c(OC)cc1-3 [Compound No. 41, 5,6-dihydro-2,3-dimethoxybenzo[a]-13-ethyl-10-methoxy-9-(2-methyl)propenoxybenzo[g]quinolizinium chloride] | > 100
CCc1c2[n+](cc3c(OCc4ccc(OC(F)(F)F)cc4)c(OC)ccc13)CCc1cc(OC)c(OC)cc1-2 [Compound No. 42, 5,6-dihydro-2,3-dimethoxybenzo[a]-13-ethyl-10-methoxy-9-(4-trifluoromethoxy)benzyloxybenzo[g]quinolizinium chloride] | 10 to 100
CCc1c2[n+](cc3c(OCc4ccccc4I)c(OC)ccc13)CCc1cc(OC)c(OC)cc1-2 [Compound No. 43, 5,6-dihydro-2,3-dimethoxybenzo[a]-13-ethyl-9-(2-iodo)benzyloxy-10-methoxybenzo[g]quinolizinium chloride] | 10 to 100
CCCCCCCCCCCCOc1c(OC)ccc2c(CC)c3[n+](cc12)CCc1cc2c(cc1-3)OCO2 [Compound No. 45, 5,6-dihydro-2,3-methylenedioxybenzo[a]-9-dodecoxy-13-ethyl-10-methoxybenzo[g]quinolizinium iodide] | 10 to 100
CCc1c2[n+](cc3c(OCc4ccc(C(C)(C)C)cc4)c(OC)ccc13)CCc1cc3c(cc1-2)OCO3 [Compound No. 46, 5,6-dihydro-2,3-methylenedioxybenzo[a]-9-[(4-tert-butyl)benzyloxy]-13-ethyl-10-methoxybenzo[g]quinolizinium iodide] | < 1
CCc1c2[n+](cc3c(OCc4c(F)c(F)c(F)c(F)c4F)c(OC)ccc13)CCc1cc3c(cc1-2)OCO3 [Compound No. 47, 5,6-dihydro-2,3-methylenedioxybenzo[a]-13-ethyl-10-methoxy-9-(2,3,4,5,6-pentafluoro)benzyloxybenzo[g]-quinolizinium iodide] | < 1
CCc1c2[n+](cc3c(OCc4cc(OC)c(OC)cc4[N+](=O)[O-])c(OC)ccc13)CCc1cc3c(cc1-2)OCO3 [Compound No. 48, 5,6-dihydro-2,3-methylenedioxybenzo[a]-9-(4,5-dimethoxy-2-nitro)benzyloxy-13-ethyl-10-methoxybenzo[g]-quinolizinium iodide] | < 1
CCc1c2[n+](cc3c(OCc4ccc(C(F)(F)F)cc4)c(OC)ccc13)CCc1cc3c(cc1-2)OCO3 [Compound No. 50, 5,6-dihydro-2,3-methylenedioxybenzo[a]-13-ethyl-10-methoxy-9-(4-trifluoromethyl)benzyloxybenzo[g]quinolizinium iodide] | 10 to 100
CCc1c2[n+](cc3c(OCc4cccc(C(F)(F)F)c4)c(OC)ccc13)CCc1cc3c(cc1-2)OCO3 [Compound No. 51, 5,6-dihydro-2,3-methylenedioxybenzo[a]-13-ethyl-10-methoxy-9-(3-trifluoromethyl)benzyloxybenzo[g]quinolizinium iodide] | 10 to 100
CCc1c2[n+](cc3c(OCc4c(F)c(F)c(C(F)(F)F)c(F)c4F)c(OC)ccc13)CCc1cc3c(cc1-2)OCO3 [Compound No. 52, 5,6-dihydro-2,3-methylenedioxybenzo[a]-13-ethyl-10-methoxy-9-(2,3,5,6-tetrafluoro-4-trifluoromethyl)benzyloxybenzo[g]quinolizinium iodide] | 10 to 100
CCc1c2[n+](cc3c(OCc4ccc(-c5ccccc5)cc4)c(OC)ccc13)CCc1cc3c(cc1-2)OCO3 [Compound No. 53, 5,6-dihydro-2,3-methylenedioxybenzo[a]-13-ethyl-10-methoxy-9-(4-phenyl)benzloxybenzo[g]quinolizinium iodide] | 10 to 100
CCc1c2[n+](cc3c(OCc4ccc(Cl)nc4)c(OC)ccc13)CCc1cc3c(cc1-2)OCO3 [Compound No. 54, 5,6-dihydro-2,3-methylenedioxybenzo[a]-9-(6-chloropyridinyl-3-yl)methoxy-13-ethyl-10-methoxybenzo[g]quinolizinium iodide] | 10 to 100
CCOc1cc2c(cc1OCC)-c1c(CC)c3ccc(OC)c(OCc4ccc(C(C)(C)C)cc4)c3c[n+]1CC2 [Compound No. 55, 5,6-dihydro-2,3-diethoxybenzo[a]-9-[4-(tert-butyl)benzyloxy]-13-ethyl-10-methoxybenzo[g]quinolizinium chloride] | < 1
CCOc1cc2c(cc1OCC)-c1c(CC)c3ccc(OC)c(OCc4c(F)c(F)c(F)c(F)c4F)c3c[n+]1CC2 [Compound No. 56, 5,6-dihydro-2,3-diethoxybenzo[a]-13-ethyl-10-methoxy-9-(2,3,4,5,6-pentafluoro)benzyloxybenzo[g]quinolizinium chloride] | < 1
CCOc1cc2c(cc1OCC)-c1c(CC)c3ccc(OC)c(OCc4c(F)c(F)c(C(F)(F)F)c(F)c4F)c3c[n+]1CC2 [Compound No. 57, 5,6-dihydro-2,3-diethoxybenzo[a]-9-(2,3,5,6-tetrafluoro-4-trifluoromethyl)benzyloxy-13-ethyl-10-methoxy-benzo[g]-quinolizinium chloride] | < 1
CCOc1cc2c(cc1OCC)-c1c(CC)c3ccc(OC)c(OCc4ccc(Cl)nc4)c3c[n+]1CC2 [Compound No. 58, 5,6-dihydro-2,3-diethoxybenzo[a]-9-(6-chloropyridinyl-3-yl)methoxy-13-ethyl-10-methoxybenzo [g]-quinolizinium chloride] | 10 to 100
CCc1c2[n+](cc3c(OCc4c(F)c(F)c(F)c(F)c4F)c(OC)ccc13)CCc1cc(O)c(O)cc1-2 [Compound No. 59, 5,6-dihydro-2,3-dihydroxybenzo[a]-13-ethyl-10-methoxy-9-(2,3,4,5,6-pentafluoro)benzyloxybenzo[g]quinolizinium chloride] | 10 to 100
CCc1c2[n+](cc3c(OCc4c(F)c(F)c(C(F)(F)F)c(F)c4F)c(OC)ccc13)CCc1cc(O)c(O)cc1-2 [Compound No. 60, 5,6-dihydro-2,3-dihydroxybenzo[a]-13-ethyl-10-methoxy-9-(2,3,5,6-tetrafluoro-4-trifluoromethyl)benzyloxybenzo[g]quinolizinium chloride] | < 1
CCCCCCCCCCCCOc1c(OCC)ccc2c(CC)c3[n+](cc12)CCc1cc(OCC)c(OCC)cc1-3 [Compound No. 61, 5,6-dihydro-2,3-diethoxybenzo[a]-9-dodecoxy-10-ethoxy-13-ethylbenzo[g]quinolizinium chloride] | < 1
